In patent publication US8409595B2, “Method for decreasing sebum production” (Medicis Pharmaceutical Corporation, priority 2003, dated 2013):

Tests used:
sebum secretion = conditions: in vivo; cited from earlier work
[1] = system: sebaceous glands of Syrian hamster ears; assay: Syrian hamster ear model of sebum secretion, HPLC of cholesterol ester and wax ester; type: in vivo; conditions: topical 1 w/v %, 4 weeks; for % Reduction in CE, change vs. relevant vehicle control: cholesterol ester; for % Reduction in CE, change vs. relevant vehicle control / % Reduction in WE, change vs. relevant vehicle control: twice daily, five days a week, right ear, negative = increase; for Sum CE + WE, change vs. relevant vehicle control: summation of % reduction in CE and in WE; for effect on CE and WE (sebum) secretion, in words: compared to the control; for % Reduction in WE, change vs. relevant vehicle control: wax ester
Experimental: Luderschmidt et al describes an animal model for testing whether compounds are capable of modulating sebum secretion. Arch. Derm. Res. 258, 185-191 (1977). This model uses Syrian hamsters, whose ears contain sebaceous glands. Compounds can be administered to these animals to determine if a test agent is capable of modulating sebum production
Testing for sebum inhibition was carried out in the following manner. Male Syrian hamsters aged 9 to 10 weeks were introduced into the laboratory environment and acclimated for 2 weeks prior to use in the study. Each group consisted of 5 animals and were run in parallel with vehicle and positive controls. Prior to administration, 10 mg of each compound was dissolved in 1 mL of Universal solvent (ethanol/propylene glycol (70/30% v/v) to achieve a final concentration of 1 w/v %.
Animals were dosed topically twice daily, five days a week, for 4 weeks. Each dose consisted of 25 micro liters of vehicle control or drug. The dose was applied to the ventral surfaces of both the right and left ears. All animals were sacrificed approximately 18-24 hours after the final dose. The right ears were collected from each animal and used for sebum analysis.
The ears were prepped for HPLC analysis in the following manner. One 8 mm distal biopsy punch was taken, just above the anatomical “V” mark in the ear to normalize the sample area. The punch was pulled apart. The ventral biopsy surface (the area where the topical dose was directly applied to the sebaceous glands) was retained for testing and the dorsal surface of the biopsy punch was discarded.
Tissue samples were blown with N2 gas and stored at −80° C. under nitrogen until HPLC analysis. In addition to ear samples, an aliquot of each drug and vehicle (at least 250 ul) was also stored at −80° C. for inclusion in the HPLC analysis.
HPLC analysis was carried out on an extract of the tissue sample. Tissue samples were contacted with 3 ml of solvent (a 4:1 admixture of 2,2,4-trimethylpentane and isopropyl alcohol). The mixture was shaken for 15 minutes and stored overnight at room temperature, protected from light. The next morning 1 milliliter of water was added to the sample and shaken for 15 minutes. The sample was then centrifuged at approximately 1500 rpm for 15 minutes. Two ml of the organic phase (top layer) was transferred to a glass vial, dried at 37° C., under nitrogen, for approximately 1 hour, and then lyophilized for approximately 48 hours. The samples were then removed from the lyophilizer and each vial was reconstituted with 600 μl of solvent A (trimethylpentane/tetrahydrofuran (99:1). The samples were then recapped and vortexed for 5 minutes.
200 μl of each sample was then transferred to a pre-labeled 200 μl HPLC vial with 200 μL glass inserts. The HPLC vials were placed in the autosampler tray for the Agilent 1100 series HPLC unit. The Agilent 1100 HPLC system consisted of a thermostated autosampler, a quarternary pump, a column heater, and an A/D interface module. All components were controlled by Agilent ChemStation software. A Waters Spherisorb S3W 4.6×100 mm analytical column was maintained at 30° C. by the Agilent column heater unit. The HPLC autosampler was programmed to maintain the sample temperature at 20° C. throughout the run.
10 uL of each sample was injected in triplicate into the column. Two solvents were used for the solvent gradient. Solvent A was an admixture of trimethylpentane and tetrahydrofuran (99:1). Solvent B was ethylacetate. The gradient utilized is described in the table below: […]
The Sedex 75 Evaporative Light Scattering Detector (ELSD) was operated at 45° C. with a gain of 5, and N2 pressure maintained at 3.1 bar. Analog signal obtained by the instrument was sent to the Agilent A/D interface module where it was converted to a digital output. The conversion was based on a 10000 mAU/volt set point and the data rate was set at 10 Hz (0.03 min). […]

Compound | reduction of sebum secretion (sebum secretion) | % Reduction in CE, change vs. relevant vehicle control [1] | Sum CE + WE, change vs. relevant vehicle control [1] | effect on CE and WE (sebum) secretion, in words [1] | % Reduction in WE, change vs. relevant vehicle control [1]
CC1=C(/C=C/C(C)=C/C=C/C(C)=C\C(=O)O)C(C)(C)CCC1 [Accutane, isotretinoin] | up to 90% |  |  |  | 
CSc1ccc(CN(C(=O)CC(=O)Nc2c(C(C)C)cccc2C(C)C)C(C)C)cc1 [Compound 2] |  | 65% | 96% | comparable results | 31%
COc1ccc(CN(C(=O)CC(=O)Nc2c(C(C)C)cccc2C(C)C)c2ccccn2)cc1 [Compound 3] |  | 51% | 84% | comparable results | 33%
CC(C)c1cccc(C(C)C)c1NC(=O)CC(=O)N(CCN(C)C)Cc1ccccc1 [Compound 4] |  | −1% | −19% |  | −18%
COc1ccc(CN(C(=O)CC(=O)Nc2c(C(C)C)cccc2C(C)C)c2ncccn2)cc1 [Compound 5] |  | 32% | 28% |  | −4%
CC(C)c1cccc(C(C)C)c1NC(=O)CC(=O)N(CCC#N)Cc1ccccc1 [Compound 6] |  | 23% | 22% |  | −1%
CCOC(=O)CN(C(=O)CC(=O)Nc1c(C(C)C)cccc1C(C)C)c1ccccc1 [Compound 7] |  | −67% | −151% |  | −84%
CC(C)c1cccc(C(C)C)c1NC(=O)CC(=O)N(c1ccccc1)C(C)C [Compound 8] |  | −27% | −97% |  | −70%
CC(C)c1cccc(C(C)C)c1NC(=O)CC(=O)CC(c1ccccc1)c1ccccc1 [Compound 9] |  | 7% | 9% |  | 2%
CCCCCCCCCCCCn1nnc(C(C(=O)Nc2c(C(C)C)cccc2C(C)C)c2ccccc2)n1 (stereo not drawn) [Compound 10] |  | −105% | −252% |  | −147%
CCCCCCCCCCCCn1nnc(C(C(=O)Nc2c(OC)cc(OC)cc2OC)c2ccccc2)n1 (stereo not drawn) [Compound 11] |  | −5% | −11% |  | −6%
CCCCCCCCCCCCOP(=O)(CC(=O)Nc1c(C(C)C)cccc1C(C)C)c1ccccc1 (stereo not drawn) [Compound 12] |  | 48% | 92% |  | 44%
CC(C)c1cccc(C(C)C)c1NC(=O)NCC1(c2ccccc2)CCOCC1 [Compound 13] |  | −7% | −14% |  | −7%
CCCCCCCCCCCCCC(=O)CC(=O)Nc1c(C(C)C)cccc1C(C)C [Compound 14] |  | −8% | −23% |  | −15%
CCCCCCCC1CCC(C(=O)Nc2c(C(C)C)cccc2C(C)C)C(=O)O1 (stereo not drawn) [Compound 15] |  | 24% | 38% |  | 14%
CC(C)c1cccc(C(C)C)c1NC(=O)NCC1(c2ccc(CO)cc2)CCCC1 [Compound 16] |  | −1% | −1% |  | 0%

Compound | reduction of sebum secretion (sebum secretion) | % Reduction in CE, change vs. relevant vehicle control [1] | Sum CE + WE, change vs. relevant vehicle control [1] | effect on CE and WE (sebum) secretion, in words [1] | % Reduction in WE, change vs. relevant vehicle control [1]
CC(C)c1cccc(C(C)C)c1NC(=O)NCC1(c2ccccn2)CCCC1 [Compound 17] |  | −56% | −120% |  | −64%
CCCCCCCCCCCCn1nnc(CC(=O)Nc2c(C)nn(C)c2C)n1 [Compound 18] |  | −23% | −72% |  | −49%
CCCCCCCCCCCCn1nnc(CNC(=O)Nc2c(C(C)C)cccc2C(C)C)n1 [Compound 19] |  | −6% | −5% |  | 1%
CC(C)c1cccc(C(C)C)c1NC(=O)NCC1(c2ccco2)CCC1 [Compound 20] |  | 4% | 3% |  | −1%
COc1ccccc1CN[C@@H](CNC(=O)Nc1c(C(C)C)cccc1C(C)C)c1ccccc1 [Compound 21] |  | 4% | 7% |  | 3%
CCCCCCCN(CCCCCSc1nc(-c2ccccc2)c(-c2ccccc2)[nH]1)C(=O)Nc1ccc(F)cc1F [Compound 22] |  | 20% | 24% |  | 4%
CC(C)c1cccc(C(C)C)c1NC(=O)NCC1(c2cccc(CN(CCO)CCO)c2)CCCC1 [Compound 23] |  | 4% | −80% |  | −84%
CC(C)c1cccc(C(C)C)c1NC(=O)NCC1(c2cccc(CN3CCOCC3)c2)CCCC1 [Compound 24] |  | 20% | 21% |  | 1%
COc1cc(OC)cc(C(NCC(=O)Nc2c(C(C)C)cccc2C(C)C)c2ccccc2)c1 (stereo not drawn) [Compound 25] |  | 10% | 7% |  | −3%
CC(C)c1cccc(C(C)C)c1NC(=O)Nc1nnn(CCCCCCCCCCCO)n1 [Compound 26] |  | 28% | 37% |  | 9%
CC(C)c1cccc(C(C)C)c1NC(=O)NCC(C)c1ccccc1 (stereo not drawn) [Compound 27] |  | −17% | −40% |  | −23%
CC(C)c1cccc(C(C)C)c1NC(=O)NCC1(c2ccccc2)CC1 [Compound 28] |  | 0% | −8% |  | −8%
CC(=O)OC(C(=O)N(CC(=O)Nc1c(C(C)C)cccc1C(C)C)Cc1ccccc1)c1ccccc1 (stereo not drawn) [Compound 29] |  | 19% | 30% |  | 11%
COc1cccc2c1CCC(NC(=O)Nc1c(C(C)C)cccc1C(C)C)C2 (stereo not drawn) [Compound 30] |  | −10% | −44% |  | −34%
CC(C)c1cccc(C(C)C)c1NC(=O)NCCc1c[nH]c2ccccc12 [Compound 31] |  | 9% | 18% |  | 9%
